The text below walks through data of patent US20100035287A1, “Secreted Luciferase Fluorescent Protein Conjugate Nucleic Acid Construct and Uses Thereof” (THE GENERAL HOSPITAL CORPORATION, priority 2006, published 2010).

Assay [1] concerns spliced XBP-1 mRNA, 293T cells. The assay can be described thus: Real-time qRT-PCR for spliced XBP-1 mRNA. Type of assay: cell-based, human. The protocol: (§1) Fold induction is calculated with respect to the control non-infected/non-treated cells. […] Blot is also probed with Gluc antibody as well as alpha-tubulin antibody for equal loading. […] The mean±S.E.M. is presented on the graphs (n=3), with *p<0.01 as compared to the non-treated cells and as calculated by the student's t-Test. NS=not significant
ER stress: total RNA isolation, reverse transcription and real-time qPCR. 293T cells were plated at 1×10^6 cells/mL in a 12-well plate. Cells were treated with different concentrations of DTT (Sigma) for 4 h. Total RNA was isolated using the RNeasy mini kit (Quiagen, Valencia, Calif.) and concentration was determined by measuring the OD260 using a spectrophotometer (Bio-Rad, Hercules, Calif.). Reverse transcription was performed on 200 ng RNA (in 10 μl) at 37° C. for 60 min using an Omniscript reverse transcription kit (Quiagen). Two μL of each cDNA sample were used for real-time PCR. Biological triplicates were measured twice. The following primers were used: Forward 5′-[…]-3′ (SEQ ID NO: 10) and Reverse 5′-[…]-3′ (SEQ ID NO: 11). These primers were designed to span a 26 bp intron in the unspliced XBP1 mRNA [12]. […] The fold increase was calculated based on Ct values of treated cells relative to control non-infected and non-treated cells normalized to the values for GAPDH endogenous control.

In assay [2] the test system is ER stress (Gluc secretion), 293T cells. Kind of assay: Real-time monitoring of ER stress with Gluc (Gluc activity in conditioned medium). The assay is classed as cell-based, human. The protocol:
Fold induction is calculated with respect to the control non-infected/non-treated cells. […] The mean±S.E.M. is presented on the graphs (n=3), with *p<0.01 as compared to the non-treated cells and as calculated by the student's t-Test. NS=not significant
Gaussia luciferase for monitoring of ER stress in real-time. Splicing of the XBP-1 mRNA to sXBP1 and expression of BiP protein are generally used as biomarkers for ER stress.

The subject of a further assay is BiP, 293T cells. Kind of assay: Western blot for BiP. The assay is classed as cell-based, human. The conditions noted are these: DTT 0.03-2 mM, 24 h, dose dependent. The method, then:
as §1
Western blot. Total cell lysates were prepared in lysis buffer containing 150 mM NaCl, 50 mM TRIS, pH 8.0, 1% NP-40, 0.5% deoxycholate, 0.1% SDS, and protease inhibitors (PI Complete; Boehringer Mannheim, Indianapolis, Ind.). Forty μg protein were electrophoresed in 12.5% SDS-polyacrylamide gels, and transferred to nitrocellulose membranes (Bio-Rad). […] Membranes were then incubated with horseradish peroxidase (HRP) conjugated to secondary antibodies: sheep anti-mouse IgG-HRP (1:10,000) or donkey anti-rabbit IgG-HRP (1:10,000) (Amersham Pharmacia Biotech, Piscataway, N.J.). For protein detection we used SuperSignal West Pico Chemiluminescent Substrate™ (Pierce, Rockford, Ill.).

Assay [3] concerns secretory pathway (Gluc-YFP secretion). Kind of assay: Gluc-YFP fusion: secretion and localization after BFA or nocodazole. The conditions noted are these: for secretion of Gluc-YFP luciferase activity: cells expressing Gluc-YFP, conditioned medium 24 h after treatment. The assay is classed as cell-based, human. The method, then:
Blocking of secretory pathway. […] Forty-eight h post-infection, cells were treated with either 5 μg/ml BFA, 3 μg/ml monensin A (MonA), 10 μg/ml nocodazole (Noc) or 5 μg/ml cytochalasin B (CytB) all obtained from Sigma.

Assay [4] relates to secretory pathway (Gluc secretion). The assay can be described thus: Bioluminescence from media of Gluc expressing cells treated with secretory pathway inhibitors (FIG. 11). The assay is classed as cell-based. The text has this: Nocodazone disrupts microtubule function and BrefeldinA disrupts golgi function.
This confirms Gluc is being secreted the secretory pathway.

Assay [5] deals with secretory pathway (Gluc secretion), 293T cells. The assay can be described thus: Blocking of secretory pathway: Gluc activity in conditioned medium of drug-treated cells. The conditions noted are these: 24 h, 5 μg/ml BFA, 3 μg/ml monensin A, 10 μg/ml nocodazole, 5 μg/ml cytochalasin B. The assay is classed as cell-based, human. The protocol: Cells were treated for 24 h with different drugs which interfere with the secretory pathway. […] Scale bar, 10 μm. Luciferase activity. […] For Fluc detection, 450 μM Beetle D-luciferin (Molecular Imaging Products, Ann Arbor, Mich.) was added directly to the viable cells, in a 96 well plate and measured as above. The signal was measured for 10 sec and integrated over 2 sec in both cases. Blocking of secretory pathway.

The subject of assay [6] is unfolded protein response (GRP78). The assay can be described thus: Immunoblotting for GRP78, unfolded protein response (FIG. 12). Type of assay: cell-based. The conditions noted are these: cells treated with tunicamycin. (In general: Immunoblotting shows a protein as a band on a membrane.)
Experimental: Immunobloting for GRP76 of protein lysates from cells not expressing Gluc in the absence (untreated) or presence of tunicamycin, an agent which upregulates the UPR, compared with untreated cells expressing the Gluc-YFP conjugate protein.
To assess the effect of Gluc expression on cell physiology and to ask if Gluc expression triggers an ER stress response and/or induces the unfolded protein response (UPR), cells were treated with tunicamycin, an agent which upregulates the UPR in the presence or absence of Gluc expression.

As for `O[C@H](CS)[C@H](O)CS` (racemic) [DTT, dithiothreitol], the “extent of XBP-1 mRNA splicing” value in assay [1] (DTT 0.03-2 mM, 4 h, dose dependent) was “increased”. The “Gluc secretion in the conditioned medium over time” value in assay [2] (1 mM DTT, real-time monitoring, started to recover after 4 h, normal level after 24 h) is reported as “complete inhibition of secretion for the first 3 h”. For the same compound, the “secretion of Gluc” value in assay [2] (DTT 0.03-2 mM, 4 h) was “decrease”. The “amount of BiP” value in the assay with BiP, 293T cells was “increased”.
`C[C@H]1CCC/C=C/[C@@H]2C[C@H](O)C[C@H]2[C@H](O)/C=C/C(=O)O1` [BFA, brefeldinA]: in assay [3], the “secretion of Gluc-YFP luciferase activity” value is “blocked to the same extent as for Gluc”. For the same compound, the “localization of Gluc-YFP fusion protein” value in assay [3] (real-time confocal microscopy on live cells) is “trapped in the ER”. Moreover, the “bioluminescence from the media compared to untreated cells” value in assay [4] was “reduced”. For the same compound, in assay [5], the “decrease of Gluc secretion into the conditioned medium” value was “about 90%”.
Consider `C=C1[C@@H](C)[C@H]2[C@H](Cc3ccccc3)NC(=O)[C@]23OC(=O)/C=C/[C@H](O)CCC[C@@H](C)C/C=C/[C@H]3[C@@H]1O` [cytochalasin B], for which the “decrease of Gluc secretion into the conditioned medium” value in assay [5] is on record as about 30%.
With `CC[C@@]1([C@@H]2O[C@@H]([C@H]3O[C@@](O)(CO)[C@H](C)C[C@@H]3C)C[C@@H]2C)CC[C@H]([C@]2(C)CC[C@]3(C[C@H](O)[C@@H](C)[C@@H]([C@@H](C)[C@@H](OC)[C@H](C)C(=O)O)O3)O2)O1` [monensin A], the “decrease of Gluc secretion into the conditioned medium” value in assay [5] is reported as about 65%.
With `COC(=O)Nc1nc2ccc(C(=O)c3cccs3)cc2[nH]1` [nocodazole], the “secretion of Gluc-YFP luciferase activity” value in assay [3] is “blocked to the same extent as for Gluc”. In assay [4], the “bioluminescence from the media compared to untreated cells” value is recorded as “reduced”. The “decrease of Gluc secretion into the conditioned medium” value in assay [5] is on record as about 75%.
Consider tunicamycin, for which the “increase in spliced XBP-1 message” value in assay [1] (tunicamycin 3 μg/ml for 4 h) came to 9 fold. Further, the “decrease in Gluc secretion” value in assay [2] (tunicamycin 3 μg/ml for 4 h) is “over 90%”. Moreover, the “expression of GRP78” value in assay [6] is “detected”.
